Assay results reported in patent publication US9169241B2, “Quinolinyloxyphenylsulfonamides” (Max-Planck-Gesellschaft Zur Forderung der Wissenschaften …, priority 2009, dated 2015).
Where two headings read alike, the source gives them in different places.

How the values were obtained:
indicated cell line = experiment: Wound healing migration assay (Table IV); format: cell-based; conditions: compounds at 12.5, 6.25, 3.125 μM, 48 h-72 h
In short: (§1)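 Compound exposure at 12.5, 6.25 and 3.125 μM, with DMSO control, on scratch-wounded monolayers (150000 cells/24 well, overnight). Wound closure imaged by microscopy, fixed with crystal violet after 48 h or 72 h depending on cell line; IC50 is the concentration giving 50% wound size between t0 and t48/t72.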

U118 [1] = experiment: Cell vitality assay (ATP assay, CellTiter-Glo); format: cell-based
In short: (§2)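 ATP-based luminescence (CellTiter-Glo) after 72 h exposure of 1000 cells/well to seven compound concentrations from 0.195 to 12.5 μM. IC50 defined as concentration reducing ATP to 50% of DMSO control.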

Hs578T [2] = experiment: Cell vitality assay (ATP assay, CellTiter-Glo); format: cell-based; conditions: Homo sapiens, Hs-578T, 72 h
In short: as §2

SF126 [3] = experiment: Cell vitality assay (ATP assay, CellTiter-Glo); format: cell-based; conditions: Homo sapiens, SF-126
In short: as §2

U118 [4] = experiment: Matrigel outgrowth assay/branching assay; format: cell-based; conditions: Table Vb, read-out: Total branching inhibition in Matrigel U118
In short: (§3)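 Invasive outgrowth into a 3 mg/ml Matrigel gel is judged from images taken after 48, 72 and 96 h of exposure to 3.125, 1.56 or 0.78 μM compound, with DMSO as control. Positive means total inhibition of branching.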

A172 = experiment: Matrigel outgrowth assay/branching assay; format: cell-based; conditions: Homo sapiens, A 172, Table Vb, read-out: Total branching inhibition in Matrigel A172
In short: as §3

Hs578T [5] = experiment: Matrigel outgrowth assay/branching assay; format: cell-based; conditions: Homo sapiens, Hs-578T; HS578T cell line; Table Ib; read-out: Total branching inhibition in Matrigel HS578T
In short: as §3

SF126 [6] = experiment: Matrigel outgrowth assay/branching assay; format: cell-based; conditions: Homo sapiens, SF-126, Table Vb, read-out: Total branching inhibition in Matrigel SF126
In short: as §3

viable cells in culture = experiment: Cell viability assay at 10 μM (CellTiter-Glo, Table VII); format: cell-based; conditions: compound 10 μM, 72 h;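 further: graded A 0-20%; B 21-40%; C 41-60%; D over 60% viable cells relative to DMSO control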
In short: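 Cells were seeded at 1000 cells/well in 96-well plates in 100 μl culture medium and incubated for 72 h with 10 μM compound or a DMSO control. ATP content, which reflects metabolically active and therefore viable cells, was then determined by CellTiter-Glo luminescence (Promega) per the manufacturer's instructions and expressed relative to the DMSO control.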

Hs578T [7] = experiment: Wound healing migration assay; format: cell-based; conditions: Homo sapiens, Hs-578T; HS578T cell line; Table Ib
In short: as §1

[8] = Homo sapiens, A 172, A172 cells, read-out: IC50 Wound healing Assay A172
[9] = Homo sapiens, SF-126, SF126 cells, read-out: IC50 Wound healing Assay SF126
[10] = Homo sapiens, C8161 cells, read-out: IC50 Wound healing Assay C8161
[11] = SF763 cells, read-out: IC50 Wound healing Assay SF763
[12] = U118 cells, read-out: IC50 Wound healing Assay U118
[13] = U118, 72 h, Table IIa, read-out: IC50 ATP-Assay after 72 h U118
[14] = HS578T cell line, Table Ib, read-out: IC50 ATP-Assay HS578T after 72 h
[15] = Hs578T, Table IIa, read-out: IC50 ATP-Assay after 72 h Hs578T
[16] = SF126, 72 h, Table IIa, read-out: IC50 ATP-Assay after 72 h SF126
[17] = Homo sapiens, HCT-116, HCT116 def, read-out: percentage (%) of viable cells HCT 116def
[18] = Homo sapiens, HCT-116, HCT116 wt, read-out: percentage (%) of viable cells HCT 116wt
[19] = Homo sapiens, HT-29, HT29, read-out: percentage (%) of viable cells HT29
[20] = Homo sapiens, NCI-H358, H358, read-out: percentage (%) of viable cells H358
[21] = Homo sapiens, NCI-H1650, H1650, read-out: percentage (%) of viable cells H1650
[22] = Homo sapiens, NCI-H1666, H1666, read-out: percentage (%) of viable cells H1666
[23] = Homo sapiens, NCI-H1975, H1975, read-out: percentage (%) of viable cells H1975
[24] = Homo sapiens, NCI-H1993, H1993, read-out: percentage (%) of viable cells H1993
[25] = Homo sapiens, A549, read-out: percentage (%) of viable cells A549
[26] = Homo sapiens, HCC827, read-out: percentage (%) of viable cells HCC827
[27] = Homo sapiens, SW480, read-out: percentage (%) of viable cells SW480
[28] = RKO, read-out: percentage (%) of viable cells RKO

## COc1cc2c(Oc3ccc(NS(=O)(=O)c4cc(F)ccc4F)cc3F)ccnc2cc1OCCCN1CCCCC1 [Example 1, 2,5-Difluoro-N-{3-fluoro-4-[6-methoxy-7-(3-piperidin-1-yl-propoxy)-quinolin-4-yloxy]-phenyl}-benzenesulfonamide]
Indicated cell line; [8]
  IC50: ≤ 12.5 µM
Indicated cell line; [9]
  IC50: ≤ 12.5 µM
Indicated cell line; [10]
  IC50: ≤ 12.5 µM
Indicated cell line; [11]
  IC50: ≤ 12.5 µM
Indicated cell line; [12]
  IC50: ≤ 12.5 µM
U118 [1]; [13]
  IC50: ≤ 12.5 µM
U118 [1]; cell vitality assay, U118, Table IIc, read-out: IC50 U118
  IC50: ≤ 12.5 µM
Hs578T [2]; [14]
  IC50: ≤ 12.5 µM
Hs578T [2]; [15]
  IC50: 12.5 to 50 µM
SF126 [3]; [16]
  IC50: ≤ 12.5 µM
SF126 [3]; cell vitality assay, SF126, Table IIb, read-out: IC50 SF126
  IC50: ≤ 12.5 µM
other
  melting point: 206 to 208 °C
U118 [4]
  IC100: ≤ 12.5 µM
A172
  IC100: ≤ 12.5 µM
Hs578T [5]
  IC50: ≤ 10 µM
SF126 [6]
  IC100: ≤ 12.5 µM
Viable cells in culture; [17]
  viability at 10 µM: 0 to 20%
Viable cells in culture; [18]
  viability at 10 µM: 0 to 20%
Viable cells in culture; [19]
  viability at 10 µM: 21 to 40%
Viable cells in culture; [20]
  viability at 10 µM: 0 to 20%
Viable cells in culture; [21]
  viability at 10 µM: 41 to 60%
Viable cells in culture; [22]
  viability at 10 µM: 41 to 60%
Viable cells in culture; [23]
  viability at 10 µM: 21 to 40%
Viable cells in culture; [24]
  viability at 10 µM: 21 to 40%
Viable cells in culture; [25]
  viability at 10 µM: > 60%
Viable cells in culture; [26]
  viability at 10 µM: 21 to 40%
Viable cells in culture; [27]
  viability at 10 µM: 0 to 20%
Viable cells in culture; [28]
  viability at 10 µM: 0 to 20%
Hs578T [7]
  IC50: ≤ 12.5 µM

## COc1cc2c(Oc3ccc(NS(=O)(=O)c4ccccc4[N+](=O)[O-])cc3F)ccnc2cc1OCCCN1CCCCC1 [Example 7, N-{3-Fluoro-4-[6-methoxy-7-(3-piperidin-1-yl-propoxy)-quinolin-4-yloxy]-phenyl}-2-nitro-benzenesulfonamide]
Indicated cell line; [8]
  IC50: ≤ 12.5 µM
Indicated cell line; [9]
  IC50: ≤ 12.5 µM
Indicated cell line; [10]
  IC50: ≤ 12.5 µM
Indicated cell line; [11]
  IC50: ≤ 12.5 µM
Indicated cell line; [12]
  IC50: ≤ 12.5 µM
U118 [1]; [13]
  IC50: 12.5 to 50 µM
Hs578T [2]; [14]
  IC50: ≤ 12.5 µM
Hs578T [2]; [15]
  IC50: ≤ 12.5 µM
SF126 [3]; [16]
  IC50: 12.5 to 50 µM
other
  melting point: 113 to 116 °C
U118 [4]
  IC100: ≤ 12.5 µM
A172
  IC100: > 12.5 µM
Hs578T [5]
  IC50: 10 to 25 µM
SF126 [6]
  IC100: ≤ 12.5 µM
Viable cells in culture; [17]
  viability at 10 µM: 21 to 40%
Viable cells in culture; [18]
  viability at 10 µM: 0 to 20%
Viable cells in culture; [19]
  viability at 10 µM: 0 to 20%
Viable cells in culture; [20]
  viability at 10 µM: 0 to 20%
Viable cells in culture; [21]
  viability at 10 µM: 0 to 20%
Viable cells in culture; [22]
  viability at 10 µM: 21 to 40%
Viable cells in culture; [23]
  viability at 10 µM: 21 to 40%
Viable cells in culture; [24]
  viability at 10 µM: 21 to 40%
Viable cells in culture; [25]
  viability at 10 µM: 41 to 60%
Viable cells in culture; [26]
  viability at 10 µM: 0 to 20%
Viable cells in culture; [27]
  viability at 10 µM: 0 to 20%
Viable cells in culture; [28]
  viability at 10 µM: 0 to 20%
Hs578T [7]
  IC50: ≤ 12.5 µM

## COc1cc2c(Oc3ccc(NS(=O)(=O)c4cccc(-c5ccccc5)c4)cc3F)ccnc2cc1OCCCN1CCCCC1 [Example 8, Biphenyl-3-sulfonic acid {3-fluoro-4-[6-methoxy-7-(3-piperidin-1-yl-propoxy)-quinolin-4-loxy]-phenyl}-amide]
Indicated cell line; [8]
  IC50: ≤ 12.5 µM
Indicated cell line; [9]
  IC50: ≤ 12.5 µM
Indicated cell line; [10]
  IC50: 12.5 to 50 µM
Indicated cell line; [11]
  IC50: ≤ 12.5 µM
Indicated cell line; [12]
  IC50: ≤ 12.5 µM
U118 [1]; [13]
  IC50: ≤ 12.5 µM
Hs578T [2]; [14]
  IC50: 12.5 to 50 µM
Hs578T [2]; [15]
  IC50: 12.5 to 50 µM
SF126 [3]; [16]
  IC50: ≤ 12.5 µM
other
  melting point: 113 to 115 °C
U118 [4]
  IC100: ≤ 12.5 µM
A172
  IC100: ≤ 12.5 µM
Hs578T [5]
  IC50: ≤ 10 µM
SF126 [6]
  IC100: ≤ 12.5 µM
Viable cells in culture; [17]
  viability at 10 µM: 0 to 20%
Viable cells in culture; [18]
  viability at 10 µM: 0 to 20%
Viable cells in culture; [19]
  viability at 10 µM: 21 to 40%
Viable cells in culture; [20]
  viability at 10 µM: 0 to 20%
Viable cells in culture; [21]
  viability at 10 µM: 0 to 20%
Viable cells in culture; [22]
  viability at 10 µM: 21 to 40%
Viable cells in culture; [23]
  viability at 10 µM: 0 to 20%
Viable cells in culture; [24]
  viability at 10 µM: 0 to 20%
Viable cells in culture; [25]
  viability at 10 µM: 41 to 60%
Viable cells in culture; [26]
  viability at 10 µM: 0 to 20%
Viable cells in culture; [27]
  viability at 10 µM: 0 to 20%
Viable cells in culture; [28]
  viability at 10 µM: 21 to 40%
Hs578T [7]
  IC50: ≤ 12.5 µM

## COc1cc2c(Oc3ccc(NS(=O)(=O)c4cccc(Oc5ccccc5)c4)cc3F)ccnc2cc1OCCCN1CCCCC1 [Example 10, N-{3-Fluoro-4-[6-methoxy-7-(3-piperidin-1-yl-propoxy)-quinolin-4-yloxy]-phenyl}-3-phenoxy-benzenesulfonamide]
Indicated cell line; [8]
  IC50: ≤ 12.5 µM
Indicated cell line; [9]
  IC50: ≤ 12.5 µM
Indicated cell line; [10]
  IC50: ≤ 12.5 µM
Indicated cell line; [11]
  IC50: ≤ 12.5 µM
Indicated cell line; [12]
  IC50: ≤ 12.5 µM
U118 [1]; [13]
  IC50: ≤ 12.5 µM
Hs578T [2]; [14]
  IC50: 12.5 to 50 µM
Hs578T [2]; [15]
  IC50: 12.5 to 50 µM
SF126 [3]; [16]
  IC50: ≤ 12.5 µM
other
  melting point: 146 to 147 °C
U118 [4]
  IC100: ≤ 12.5 µM
A172
  IC100: ≤ 12.5 µM
Hs578T [5]
  IC50: ≤ 10 µM
SF126 [6]
  IC100: ≤ 12.5 µM
Viable cells in culture; [17]
  viability at 10 µM: 0 to 20%
Viable cells in culture; [18]
  viability at 10 µM: 0 to 20%
Viable cells in culture; [19]
  viability at 10 µM: 21 to 40%
Viable cells in culture; [20]
  viability at 10 µM: 0 to 20%
Viable cells in culture; [21]
  viability at 10 µM: 21 to 40%
Viable cells in culture; [22]
  viability at 10 µM: 21 to 40%
Viable cells in culture; [23]
  viability at 10 µM: 21 to 40%
Viable cells in culture; [24]
  viability at 10 µM: 0 to 20%
Viable cells in culture; [25]
  viability at 10 µM: 21 to 40%
Viable cells in culture; [26]
  viability at 10 µM: 0 to 20%
Viable cells in culture; [27]
  viability at 10 µM: 0 to 20%
Viable cells in culture; [28]
  viability at 10 µM: 0 to 20%
Hs578T [7]
  IC50: ≤ 12.5 µM

## COc1cc2c(Oc3c(Cl)cc(NS(=O)(=O)c4ccccc4C(F)(F)F)cc3Cl)ccnc2cc1OCCCN1CCC(C)CC1 [Example 210, N-(3,5-Dichloro-4-{6-methoxy-7-[3-(4-methyl-piperidin-1-yl)-propoxy]-quinolin-4-yloxy}-phenyl)-2-trifluoromethyl-benzenesulfonamide]
Indicated cell line; [8]
  IC50: ≤ 12.5 µM
Indicated cell line; [9]
  IC50: ≤ 12.5 µM
Indicated cell line; [12]
  IC50: ≤ 12.5 µM
U118 [1]; [13]
  IC50: ≤ 12.5 µM
Hs578T [2]; [14]
  IC50: ≤ 12.5 µM
SF126 [3]; [16]
  IC50: ≤ 12.5 µM
other
  melting point: 148 to 151 °C
U118 [4]
  IC100: ≤ 12.5 µM
A172
  IC100: > 12.5 µM
Hs578T [5]
  IC50: ≤ 10 µM
SF126 [6]
  IC100: ≤ 12.5 µM
Hs578T [7]
  IC50: ≤ 12.5 µM
